The source of these data is PMC7366380, “Discovery of a Potent and Selective Covalent Inhibitor and Activity-Based Probe for the Deubiquitylating Enzyme UCHL1, with Antifibrotic Activity” (Journal of the American Chemical Society, 2020).

One assay concerns the target T1, USP22 (Homo sapiens, UniProt Q9UPT9).
T1 sequence (Q9UPT9 1-525): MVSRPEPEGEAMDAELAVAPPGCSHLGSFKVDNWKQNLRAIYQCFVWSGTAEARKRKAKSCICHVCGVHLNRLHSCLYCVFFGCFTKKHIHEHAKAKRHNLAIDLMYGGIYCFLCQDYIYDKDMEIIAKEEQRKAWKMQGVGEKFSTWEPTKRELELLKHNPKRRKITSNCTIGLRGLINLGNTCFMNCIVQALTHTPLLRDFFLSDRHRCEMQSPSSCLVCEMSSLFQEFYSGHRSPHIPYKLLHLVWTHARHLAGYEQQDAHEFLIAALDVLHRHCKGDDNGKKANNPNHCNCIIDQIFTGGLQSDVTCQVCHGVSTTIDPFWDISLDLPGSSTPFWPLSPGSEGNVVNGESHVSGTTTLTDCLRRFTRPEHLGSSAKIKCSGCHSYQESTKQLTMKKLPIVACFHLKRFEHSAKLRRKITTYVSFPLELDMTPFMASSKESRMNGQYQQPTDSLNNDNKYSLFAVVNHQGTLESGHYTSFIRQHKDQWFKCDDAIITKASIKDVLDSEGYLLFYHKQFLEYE
T1 sequence (Q14CW9 1-347 partner): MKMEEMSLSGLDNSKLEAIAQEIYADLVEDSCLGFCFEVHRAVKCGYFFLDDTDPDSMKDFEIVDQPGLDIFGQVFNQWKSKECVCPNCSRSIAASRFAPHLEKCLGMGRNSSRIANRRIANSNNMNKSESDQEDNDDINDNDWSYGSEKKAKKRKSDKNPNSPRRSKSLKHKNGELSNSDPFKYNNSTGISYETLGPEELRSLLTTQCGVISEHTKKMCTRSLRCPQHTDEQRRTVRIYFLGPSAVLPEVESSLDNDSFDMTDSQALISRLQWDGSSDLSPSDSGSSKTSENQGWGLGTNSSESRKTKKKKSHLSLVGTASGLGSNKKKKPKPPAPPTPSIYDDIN
T1 sequence (Q9NPA8 1-101 partner): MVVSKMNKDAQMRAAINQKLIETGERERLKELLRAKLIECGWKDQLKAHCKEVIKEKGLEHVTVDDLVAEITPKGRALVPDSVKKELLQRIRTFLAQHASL
The experiment in a line: Biochemical DUB selectivity profiling assay: USP22. The conditions noted are these: Ub-Rho110 400 nM, buffer B; read-out: Biochemical IC50 range, USP22. The method, then:
(§1) DUB Assay Substrate Substrate
(§2) Buffer Concentration (nM) […]
(§3) Sepharose® 4B resin (GE Healthcare).
(§4) 10 kDa molecular weight cut-off (MWCO)).
(§5) Fractions containing protein
(§6) Protein concentration was […]
(§7) reaction volume of 21 μL. […]
(§8) compound (final concentration 5 nM).
(§9) IC50 values were determined
(§10) Biochemical DUB selectivity profiling assays […]
(§11) in 40 µL total reaction volume.

The target in a further assay is T2, UCHL1 (Homo sapiens, UniProt P09936).
T2 sequence (P09936 1-223): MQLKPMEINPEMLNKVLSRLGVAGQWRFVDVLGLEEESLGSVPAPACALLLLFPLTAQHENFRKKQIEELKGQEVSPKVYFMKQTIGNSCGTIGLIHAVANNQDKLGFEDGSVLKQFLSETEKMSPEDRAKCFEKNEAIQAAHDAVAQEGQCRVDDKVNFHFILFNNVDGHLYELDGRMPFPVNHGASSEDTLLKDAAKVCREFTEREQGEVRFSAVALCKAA
Kind of assay: biochemical.

In a further assay the target is T3, BAP1 (Homo sapiens, UniProt Q92560).
T3 sequence (Q92560 1-729): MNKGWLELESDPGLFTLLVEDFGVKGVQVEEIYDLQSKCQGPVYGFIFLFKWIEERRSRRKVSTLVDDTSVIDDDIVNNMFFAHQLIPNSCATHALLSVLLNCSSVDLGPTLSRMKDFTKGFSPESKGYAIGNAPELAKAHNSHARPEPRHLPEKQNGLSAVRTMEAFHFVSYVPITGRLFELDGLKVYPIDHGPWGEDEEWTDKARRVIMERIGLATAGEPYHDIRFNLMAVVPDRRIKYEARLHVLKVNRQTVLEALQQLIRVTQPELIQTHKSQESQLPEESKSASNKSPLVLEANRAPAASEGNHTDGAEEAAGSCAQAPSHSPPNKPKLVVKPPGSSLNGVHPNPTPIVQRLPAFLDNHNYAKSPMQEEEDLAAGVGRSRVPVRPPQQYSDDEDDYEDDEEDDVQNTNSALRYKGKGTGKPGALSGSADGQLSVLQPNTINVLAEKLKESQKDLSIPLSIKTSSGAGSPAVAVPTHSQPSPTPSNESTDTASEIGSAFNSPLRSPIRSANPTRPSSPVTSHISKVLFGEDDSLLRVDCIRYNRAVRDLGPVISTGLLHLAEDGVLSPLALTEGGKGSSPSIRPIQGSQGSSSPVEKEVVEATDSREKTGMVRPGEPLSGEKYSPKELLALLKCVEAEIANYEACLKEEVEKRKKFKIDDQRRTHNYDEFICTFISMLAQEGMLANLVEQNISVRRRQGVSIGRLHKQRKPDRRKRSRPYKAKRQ
Kind of assay: biochemical.

Another assay deals with T4, USP30 (Homo sapiens, UniProt Q70CQ3).
T4 sequence (Q70CQ3 1-517): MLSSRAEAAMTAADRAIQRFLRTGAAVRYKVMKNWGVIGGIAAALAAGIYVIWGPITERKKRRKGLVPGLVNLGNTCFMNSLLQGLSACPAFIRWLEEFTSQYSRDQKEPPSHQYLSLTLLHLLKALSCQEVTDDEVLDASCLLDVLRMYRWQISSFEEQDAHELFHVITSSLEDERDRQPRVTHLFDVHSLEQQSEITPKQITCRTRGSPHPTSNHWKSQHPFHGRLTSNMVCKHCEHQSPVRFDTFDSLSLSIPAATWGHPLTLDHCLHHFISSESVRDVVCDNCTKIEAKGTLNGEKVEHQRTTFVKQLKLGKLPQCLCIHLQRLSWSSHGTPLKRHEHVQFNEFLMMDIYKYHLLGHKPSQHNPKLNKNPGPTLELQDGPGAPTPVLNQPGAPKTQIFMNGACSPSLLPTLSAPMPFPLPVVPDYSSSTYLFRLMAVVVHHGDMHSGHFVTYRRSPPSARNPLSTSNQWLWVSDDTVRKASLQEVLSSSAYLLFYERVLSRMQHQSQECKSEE
Kind of assay: biochemical.

Another assay addresses USP34 (Homo sapiens, UniProt Q70CQ2). Kind of assay: Biochemical DUB selectivity profiling assay: USP34. The note with it: Ub-Rho110 400 nM, buffer B; read-out: Biochemical IC50 range, USP34. As for the experimental part:
as §1, §2, §3, §4, §5, §6, §7, §8, §9, §10, §11

[1] abbreviates: Biochemical IC50 range, UCHL1, Ub-Lys-TAMRA 50 nM, buffer A.
Where [2] appears, read: UCHL1 IC50 (FP, 95% CI), UCHL1 5 nM, 30 min preincubation, Ub-Lys-TAMRA 50 nM.

Each structure is given as a SMILES string.

USP34, sequence (Q70CQ2 whole entry): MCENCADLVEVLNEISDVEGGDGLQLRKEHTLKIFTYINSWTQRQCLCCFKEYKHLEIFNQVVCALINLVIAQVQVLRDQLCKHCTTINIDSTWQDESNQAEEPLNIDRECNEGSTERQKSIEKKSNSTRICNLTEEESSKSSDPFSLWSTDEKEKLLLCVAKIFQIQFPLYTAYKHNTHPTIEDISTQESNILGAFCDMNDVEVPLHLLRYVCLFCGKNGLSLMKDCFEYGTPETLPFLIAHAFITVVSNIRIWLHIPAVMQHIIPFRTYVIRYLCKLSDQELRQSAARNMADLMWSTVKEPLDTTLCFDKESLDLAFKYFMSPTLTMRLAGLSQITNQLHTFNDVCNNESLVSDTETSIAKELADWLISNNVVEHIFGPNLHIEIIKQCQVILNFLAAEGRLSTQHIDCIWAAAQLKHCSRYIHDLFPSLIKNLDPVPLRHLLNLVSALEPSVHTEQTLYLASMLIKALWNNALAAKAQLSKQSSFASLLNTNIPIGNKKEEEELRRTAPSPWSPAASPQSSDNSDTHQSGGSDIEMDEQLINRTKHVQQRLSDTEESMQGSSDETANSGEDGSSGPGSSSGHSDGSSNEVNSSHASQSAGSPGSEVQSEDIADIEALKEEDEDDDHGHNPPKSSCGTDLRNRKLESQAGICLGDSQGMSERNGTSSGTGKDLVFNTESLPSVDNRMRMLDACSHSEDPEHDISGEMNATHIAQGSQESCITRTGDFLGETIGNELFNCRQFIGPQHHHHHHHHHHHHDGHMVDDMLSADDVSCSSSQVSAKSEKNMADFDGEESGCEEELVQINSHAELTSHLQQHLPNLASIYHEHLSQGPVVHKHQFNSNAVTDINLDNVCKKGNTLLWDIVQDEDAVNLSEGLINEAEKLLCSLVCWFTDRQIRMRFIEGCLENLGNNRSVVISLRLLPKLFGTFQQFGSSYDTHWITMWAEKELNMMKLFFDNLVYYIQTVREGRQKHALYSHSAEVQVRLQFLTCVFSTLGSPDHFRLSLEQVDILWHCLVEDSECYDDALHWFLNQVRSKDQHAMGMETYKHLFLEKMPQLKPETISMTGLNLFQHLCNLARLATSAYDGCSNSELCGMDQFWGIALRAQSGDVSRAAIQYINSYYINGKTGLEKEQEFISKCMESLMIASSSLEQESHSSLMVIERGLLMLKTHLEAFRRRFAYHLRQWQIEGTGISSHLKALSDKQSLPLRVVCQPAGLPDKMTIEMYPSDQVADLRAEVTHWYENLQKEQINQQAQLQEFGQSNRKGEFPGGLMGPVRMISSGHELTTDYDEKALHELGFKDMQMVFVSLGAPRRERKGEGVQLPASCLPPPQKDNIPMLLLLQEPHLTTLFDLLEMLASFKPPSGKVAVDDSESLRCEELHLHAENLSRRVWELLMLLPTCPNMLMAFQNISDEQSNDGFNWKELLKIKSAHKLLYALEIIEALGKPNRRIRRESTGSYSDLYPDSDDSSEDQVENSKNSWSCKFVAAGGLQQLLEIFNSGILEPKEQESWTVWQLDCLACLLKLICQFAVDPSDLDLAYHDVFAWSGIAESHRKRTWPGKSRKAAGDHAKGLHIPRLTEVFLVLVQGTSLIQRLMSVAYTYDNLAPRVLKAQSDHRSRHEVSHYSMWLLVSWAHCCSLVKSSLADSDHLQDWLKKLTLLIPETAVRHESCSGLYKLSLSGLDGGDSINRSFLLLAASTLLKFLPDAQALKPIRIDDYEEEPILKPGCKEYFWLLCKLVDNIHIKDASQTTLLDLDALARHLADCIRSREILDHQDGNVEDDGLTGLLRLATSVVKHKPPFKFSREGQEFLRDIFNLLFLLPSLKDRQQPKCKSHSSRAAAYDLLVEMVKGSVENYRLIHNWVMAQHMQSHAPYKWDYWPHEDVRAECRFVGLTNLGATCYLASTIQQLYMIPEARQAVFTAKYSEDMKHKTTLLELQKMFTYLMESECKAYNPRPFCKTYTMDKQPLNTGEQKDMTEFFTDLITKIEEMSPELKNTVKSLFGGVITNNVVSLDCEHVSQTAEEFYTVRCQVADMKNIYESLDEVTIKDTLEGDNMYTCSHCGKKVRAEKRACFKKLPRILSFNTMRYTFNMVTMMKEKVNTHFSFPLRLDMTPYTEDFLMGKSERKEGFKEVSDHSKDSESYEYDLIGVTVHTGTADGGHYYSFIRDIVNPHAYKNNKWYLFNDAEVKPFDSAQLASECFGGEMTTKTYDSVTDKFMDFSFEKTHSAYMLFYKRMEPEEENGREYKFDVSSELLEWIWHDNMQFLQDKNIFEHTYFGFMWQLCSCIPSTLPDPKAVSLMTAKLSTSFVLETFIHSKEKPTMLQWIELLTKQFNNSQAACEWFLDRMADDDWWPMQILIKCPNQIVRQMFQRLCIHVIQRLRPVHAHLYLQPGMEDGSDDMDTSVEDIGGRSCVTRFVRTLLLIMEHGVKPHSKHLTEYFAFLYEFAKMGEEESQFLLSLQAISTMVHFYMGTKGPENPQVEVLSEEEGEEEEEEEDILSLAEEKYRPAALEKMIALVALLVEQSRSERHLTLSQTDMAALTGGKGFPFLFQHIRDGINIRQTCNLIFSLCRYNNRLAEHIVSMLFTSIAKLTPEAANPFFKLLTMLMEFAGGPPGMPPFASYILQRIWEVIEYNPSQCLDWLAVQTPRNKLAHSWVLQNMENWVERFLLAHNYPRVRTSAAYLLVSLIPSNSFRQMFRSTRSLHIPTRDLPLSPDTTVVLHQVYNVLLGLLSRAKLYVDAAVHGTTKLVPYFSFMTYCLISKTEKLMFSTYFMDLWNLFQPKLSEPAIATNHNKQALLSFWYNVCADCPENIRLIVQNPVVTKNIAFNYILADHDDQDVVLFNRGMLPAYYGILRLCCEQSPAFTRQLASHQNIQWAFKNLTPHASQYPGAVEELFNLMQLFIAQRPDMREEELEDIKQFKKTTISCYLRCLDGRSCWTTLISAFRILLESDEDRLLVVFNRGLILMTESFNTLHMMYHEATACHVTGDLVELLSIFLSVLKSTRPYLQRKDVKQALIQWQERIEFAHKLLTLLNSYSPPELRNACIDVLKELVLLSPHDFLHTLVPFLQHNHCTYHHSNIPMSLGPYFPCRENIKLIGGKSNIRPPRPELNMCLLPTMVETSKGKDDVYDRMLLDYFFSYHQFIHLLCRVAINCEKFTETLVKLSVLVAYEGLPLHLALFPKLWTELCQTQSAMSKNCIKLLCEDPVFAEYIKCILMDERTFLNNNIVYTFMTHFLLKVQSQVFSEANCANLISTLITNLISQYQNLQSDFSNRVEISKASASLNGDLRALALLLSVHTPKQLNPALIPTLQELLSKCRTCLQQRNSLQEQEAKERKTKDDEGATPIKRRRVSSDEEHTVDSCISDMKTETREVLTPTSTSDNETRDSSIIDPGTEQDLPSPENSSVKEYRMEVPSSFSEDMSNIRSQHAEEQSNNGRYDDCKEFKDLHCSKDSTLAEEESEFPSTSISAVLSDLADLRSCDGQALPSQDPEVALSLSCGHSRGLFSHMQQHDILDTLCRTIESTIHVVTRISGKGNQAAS

For `N#CN1CCC[C@H]1C(=O)N1CCc2c(-c3c[nH]c4ncccc34)cccc21` [Compound 1], the IC50 on USP22 is more than 10 µM; against UCHL1 (setting [1]), less than 0.1 µM; at UCHL1 (setting [2]), 0.09 µM; against BAP1, 1 to 10 µM; at USP30 it was 1 to 10 µM; on USP34, 1 to 10 µM.

`C#Cc1cnc2[nH]cc(-c3cccc4c3CCN4C(=O)[C@@H]3CCCN3C#N)c2c1` [Compound 2]: the IC50 was more than 10 µM at USP22, less than 0.1 µM against UCHL1 (setting [1]), 0.038 µM at UCHL1 (setting [2]) and 1 to 10 µM on USP34.

As for `N#CN1CCC[C@@H]1C(=O)N1CCc2c(-c3c[nH]c4ncccc34)cccc21` [Compound 3], the IC50 at USP22 is more than 10 µM; against UCHL1 (setting [1]) it was more than 10 µM; at UCHL1 (UCHL1 IC50 (FP), UCHL1 5 nM, 30 min preincubation, Ub-Lys-TAMRA 50 nM, bound = maximum assay concentration), more than 100 µM; against BAP1 it was more than 10 µM; against USP30, more than 10 µM; on USP34, more than 10 µM.

For `CC(=O)O/N=C1\C(=O)N(Cc2cc(Cl)ccc2Cl)c2ccc(Cl)cc21` [LDN-57444, reference compound], the IC50 on USP22, against BAP1, at USP30 and on USP34 was more than 10 µM throughout.
